In US20070004660A1, “Synergistic Modulation of Flt3 Kinase Using Alkylquinolines and Alkylquinazolines” (priority 2005, published 2007) one finds IC50 data, which are given here for 21 compounds.

Counter-ions that a name gives are not always drawn.

Assay [1] addresses T1, isolated kinase domain of the human FLT3 receptor (a.a. 571-993) (Homo sapiens, UniProt P36888).
T1 construct: human FLT3 receptor (a.a. 571-993)
T1 sequence (P36888 571-993): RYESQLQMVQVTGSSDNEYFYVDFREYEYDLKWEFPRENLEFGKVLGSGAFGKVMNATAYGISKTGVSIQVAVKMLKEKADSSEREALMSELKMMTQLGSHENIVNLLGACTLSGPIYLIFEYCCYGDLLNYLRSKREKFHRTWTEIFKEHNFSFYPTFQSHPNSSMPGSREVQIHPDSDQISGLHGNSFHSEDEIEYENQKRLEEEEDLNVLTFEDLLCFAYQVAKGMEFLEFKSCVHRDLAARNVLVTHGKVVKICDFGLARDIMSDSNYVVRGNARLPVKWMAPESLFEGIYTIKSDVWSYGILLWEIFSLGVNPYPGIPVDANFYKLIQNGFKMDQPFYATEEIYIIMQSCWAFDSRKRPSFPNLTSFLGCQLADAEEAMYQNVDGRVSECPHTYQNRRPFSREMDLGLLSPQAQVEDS
Kind of assay: FLT3 fluorescence polarization kinase assay. The class given is biochemical. The note with it: 150 uM ATP; uncertainty ±10%.

For assay [2], the system named is MV4-11 cells. Briefly: Inhibition of MV4-11 cell proliferation (CellTiterGlo, 72 h). The class given is cell-based. As to conditions: Homo sapiens; 72 h growth inhibition; uncertainty ±20%.

Consider `COc1cc2ncnc(C3CCN(C(=O)Nc4ccc5ncsc5c4)CC3)c2cc1OC` [Example 24, 4-(6,7-Dimethoxy-quinazolin-4-yl)-piperidine-1-carboxylic acid benzothiazol-6-ylamide], for which the IC50 in assay [1] came to 5500 nM; in assay [2], 3700 nM.
On to `CC(=O)N1CCC[C@H]1COc1ccc2c(C3CCN(C(=O)Nc4ccc(N5CCCC5)cc4)CC3)ncnc2c1` [Example 162, (S)-4-[7-(1-Acetyl-pyrrolidin-2-ylmethoxy)-quinazolin-4-yl]-piperidine-1-carboxylic acid (4-pyrrolidin-1-yl-phenyl)-amide], for which the IC50 in assay [1] is 32 nM; in assay [2], 46 nM.
On to `CS(=O)(=O)N1CC(Oc2ccc3c(C4CCN(C(=O)Nc5ccc(N6CCCC6)cc5)CC4)ncnc3c2)C1` [Example 171, 4-[7-(1-Methanesulfonyl-azetidin-3-yloxy)-quinazolin-4-yl]-piperidine-1-carboxylic acid (4-pyrrolidin-1-yl-phenyl)-amide], for which the figures for the IC50 in assay [1] and in assay [2] were 130 nM and 185 nM, respectively.
`O=C(Nc1ccc(N2CCCC2)cc1)N1CCC(c2ncnc3cc(N4CCC(F)CC4)ccc23)CC1` [Compound 195, 4-[7-(4-Fluoro-piperidin-1-yl)-quinazolin-4-yl]-piperidine-1-carboxylic acid (4-pyrrolidin-1-yl-phenyl)-amide]: the IC50 was 163 nM in assay [1] and 17 nM in assay [2].
On the same counts, the results for `O=C(Nc1ccc(N2CCOCC2)cc1)N1CCC(c2ncnc3cc(N4CCC(F)CC4)ccc23)CC1` [Compound 196, 4-[7-(4-Fluoro-piperidin-1-yl)-quinazolin-4-yl]-piperidine-1-carboxylic acid (4-morpholin-4-yl-phenyl)-amide] are 291 nM and 75 nM.
Consider `CS(=O)(=O)CCNc1ccc2c(C3CCN(C(=O)Nc4ccc(N5CCOCC5)cc4)CC3)ncnc2c1` [Example 146, 4-[7-(2-Methanesulfonyl-ethylamino)-quinazolin-4-yl]-piperidine-1-carboxylic acid (4-morpholin-4-yl-phenyl)-amide], for which the IC50 in assay [1] came out at 274 nM; in assay [2], 322 nM.
For the compound `CC(C)Oc1ccc(NC(=O)N2CCC(c3ncnc4ccc(C#CCN5CCOCC5)cc34)CC2)cc1` [Example 15, 4-[6-(3-Morpholin-4-yl-prop-1-ynyl)-quinazolin-4-yl]-piperidine-1-carboxylic acid (4-isopropoxy-phenyl)-amide], the IC50 was 46 nM in assay [1] and 30 nM in assay [2].
With `COc1cc2ncnc(C3CCN(C(=O)Nc4ccc(N5CCOCC5)cc4)CC3)c2cc1OC` [Example 18, 4-(6,7-Dimethoxy-quinazolin-4-yl)-piperidine-1-carboxylic acid (4-morpholin-4-yl-phenyl)-amide], the IC50 stood at 62 nM in assay [1] and 137 nM in assay [2].
As to `O=C(Nc1ccc(N2CCCC2)cc1)N1CCC(c2ncnc3cc(N4CCOCC4)ccc23)CC1` [Compound 181, 4-(7-Morpholin-4-yl-quinazolin-4-yl)-piperidine-1-carboxylic acid (4-pyrrolidin-1-yl-phenyl)-amide], the IC50 in assay [1] is 10 nM; in assay [2], 9 nM.
With `O=C(Nc1ccc(N2CCOCC2)cc1)N1CCC(c2ncnc3cc(N4CCNCC4)ccc23)CC1` [Example 140, 4-(7-Piperazin-1-yl-quinazolin-4-yl)-piperidine-1-carboxylic acid (4-morpholin-4-yl-phenyl)-amide], the IC50 was 45 nM in assay [1] and 170 nM in assay [2].
On the same counts, the results for `O=C(Nc1ccc(N2CCCC2)cc1)N1CCC(c2ncnc3cc(N4CCC4)ccc23)CC1` [Example 173, 4-(7-Azetidin-1-yl-quinazolin-4-yl)-piperidine-1-carboxylic acid (4-pyrrolidin-1-yl-phenyl)-amide] are 1 nM and 16 nM.
For `O=C(Nc1ccc(N2CCCC2)cc1)N1CCC(c2ncnc3cc(-n4ccnc4)ccc23)CC1` [Compound 180, 4-(7-Imidazol-1-yl-quinazolin-4-yl)-piperidine-1-carboxylic acid (4-pyrrolidin-1-yl-phenyl)-amide], the IC50 in assay [1] turned out to be 6 nM; in assay [2], 20 nM.
Turning to `CC(=O)N1CCN(c2ccc3c(C4CCN(C(=O)Nc5ccc(N6CCOCC6)cc5)CC4)ncnc3c2)CC1` [Example 141, 4-[7-(4-Acetyl-piperazin-1-yl)-quinazolin-4-yl]-piperidine-1-carboxylic acid (4-morpholin-4-yl-phenyl)-amide], the results for the half-inhibitory concentration (IC50) in assay [1] and in assay [2] were 66 nM and 79 nM, respectively.
For `COc1cc2ncnc(C3CCN(C(=O)Nc4ccc(OC(C)C)cc4)CC3)c2cc1OC` [Example 1, 4-(6,7-Dimethoxy-quinazolin-4-yl)-piperidine-1-carboxylic acid (4-isopropoxy-phenyl)-amide hydrochloride], the IC50 came out at 46 nM in assay [1] and 88 nM in assay [2].
Take `COc1cc2ncnc(C3CCN(C(=O)Nc4ccc(C5CCCCC5)cc4)CC3)c2cc1OC` [Example 21, 4-(6,7-Dimethoxy-quinazolin-4-yl)-piperidine-1-carboxylic acid (4-cyclohexyl-phenyl)-amide]: the IC50 in assay [1] turned out to be 7 nM; in assay [2] it was 27 nM.
Take `CN1CCN(c2ccc3c(C4CCN(C(=O)Nc5ccc(N6CCCC6)cc5)CC4)ncnc3c2)CC1=O` [Compound 184, 4-[7-(4-Methyl-3-oxo-piperazin-1-yl)-quinazolin-4-yl]-piperidine-1-carboxylic acid (4-pyrrolidin-1-yl-phenyl)-amide]: the values for the IC50 in assay [1] and in assay [2] were 244 nM and 58 nM, respectively.
Regarding `CC(C)c1ccc(NC(=O)CN2CCC(c3ncnc4ccccc34)CC2)cc1` [Example 16, N-(4-Isopropyl-phenyl)-2-(4-quinazolin-4-yl-piperidin-1-yl)-acetamide], the values for the IC50 in assay [1] and in assay [2] were 56 nM and 559 nM, respectively.
On the same counts, the results for `O=C(Nc1ccc(N2CCOCC2)cc1)N1CCC(c2ncnc3cc(N4CCN(CCO)CC4)ccc23)CC1` [Example 137, 4-{7-[4-(2-Hydroxy-ethyl)-piperazin-1-yl]-quinazolin-4-yl}-piperidine-1-carboxylic acid (4-morpholin-4-yl-phenyl)-amide] are 12 nM and 74 nM.
For `O=C(Nc1ccc(N2CCCC2)cc1)N1CCC(c2ncnc3cc(OCCCN4CCC[C@H]4CO)ccc23)CC1` [Example 161, (S)-4-{7-[3-(2-Hydroxymethyl-pyrrolidin-1-yl)-propoxy]-quinazolin-4-yl}-piperidine-1-carboxylic acid (4-pyrrolidin-1-yl-phenyl)-amide], the IC50 in assay [1] came to 1 nM; in assay [2] it was 13 nM.
Consider `CN1CCN(c2ccc3c(C4CCN(C(=O)Nc5ccc(N6CCCC6)nc5)CC4)ncnc3c2)CC1` [Example 160, 4-[7-(4-Methyl-piperazin-1-yl)-quinazolin-4-yl]-piperidine-1-carboxylic acid (6-pyrrolidin-1-yl-pyridin-3-yl)-amide], for which the IC50 in assay [1] was found to be 14 nM; in assay [2], 67 nM.
For `O=C(Nc1ccc(N2CCCC2)cc1)N1CCC(c2ncnc3cc(N4CCCC4)ccc23)CC1` [Compound 179, 4-(7-Pyrrolidin-1-yl-quinazolin-4-yl)-piperidine-1-carboxylic acid (4-pyrrolidin-1-yl-phenyl)-amide], the IC50 in assay [1] was 17 nM; in assay [2] it was 34 nM.

Broadly, the IC50 is the point on the concentration scale where inhibition reaches its midpoint. Low values mean greater potency, high ones weaker potency.
